# Reference: patent US8017611B2, “Pyridine and pyrazine derivatives -083” (AstraZeneca AB, priority 2007, dated 2011)
# Target: T1, recombinant Axl tyrosine kinase (Homo sapiens, UniProt P30530)
# T1 construct: encompassing amino acids 473 to 894 of Axl; GST (N); made in house; host or cells: SF126 insect cells
# T1 sequence (P30530 473-894): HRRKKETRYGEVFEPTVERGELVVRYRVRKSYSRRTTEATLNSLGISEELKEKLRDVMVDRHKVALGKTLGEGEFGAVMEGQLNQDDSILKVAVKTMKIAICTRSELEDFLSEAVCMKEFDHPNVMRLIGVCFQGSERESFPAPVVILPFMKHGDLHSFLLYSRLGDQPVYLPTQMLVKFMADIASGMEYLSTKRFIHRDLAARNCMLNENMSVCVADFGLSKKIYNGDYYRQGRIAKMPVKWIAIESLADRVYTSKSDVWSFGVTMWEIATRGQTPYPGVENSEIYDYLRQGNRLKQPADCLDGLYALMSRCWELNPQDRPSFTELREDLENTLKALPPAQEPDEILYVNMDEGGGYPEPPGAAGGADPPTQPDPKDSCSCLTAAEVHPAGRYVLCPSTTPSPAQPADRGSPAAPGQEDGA
# Assay: In vitro Axl kinase assay (AlphaScreen), Test (a)
# Type: biochemical
# Settings: 1 μM; mean calculated from a larger number of replicates than the first value
row,Compound,"% Axl tyrosine kinase inhibition at 1 μM concentration (second value, †)"
1,Nc1ncc(-c2cccc(N3CCOCC3)c2)cc1-c1nc2cnccc2o1 [Example 8A.4],86.6%

# Same assay, conditions: Test (a); read-out: IC50 versus Axl tyrosine kinase
row,Compound,IC50
1,COCc1nn(C2CCNCC2)cc1-c1cnc(N)c(-c2nc3cccc(OC)c3o2)c1 [Example 62.14],~0.1 nM

# Same assay, conditions: test compound at 1 μM; first value quoted
row,Compound,% Axl tyrosine kinase inhibition at 1 μM concentration
1,CNS(=O)(=O)c1cccc(-c2cnc(N)c(-c3nc4ccncc4o3)c2)c1 [Example 11A.8],39.6%
2,Nc1ncc(-c2ccc(C(=O)N3CCOCC3)cc2)cc1-c1nc2cnccc2o1 [Example 8A.12],97.8%
3,Nc1ncc(-c2ccc(OCCN3CCCC3)cc2)cc1-c1nc2ncccc2o1 [Example 43B.1],99.8%
4,Nc1ncc(-c2cccc(N3CCOCC3)c2)cc1-c1nc2cnccc2o1 [Example 8A.4],89.8%
5,Nc1ncc(-c2ccc(CN3CCOCC3)cc2)cc1-c1nc2ccccc2o1 [Example 2.7],99.1%
6,Nc1ncc(-c2ccc(C(=O)NCCN3CCOCC3)cc2)cc1-c1nc2cccnc2o1 [Example 45A.51],98.5%
7,CN(C)CCC(=O)N1CCC(n2cc(-c3cnc(N)c(-c4nc5cccnc5o4)c3)cn2)CC1 [Example 59.13],99.7%
8,CN(C)CCNC(=O)c1cccc(-c2cnc(N)c(-c3nc4cnccc4o3)c2)c1 [Example 8A.24],95.6%
9,CN(C)c1nn(C2CCNCC2)cc1-c1cnc(N)c(-c2nc3ccccc3o2)c1 [Example 62.3],99.9%
10,CN1CCN(c2ccc(-c3cnc(N)c(-c4nc5cccnc5o4)c3)cc2)CC1 [Example 25.10],97.7%
11,CN(C)CCNC(=O)c1cccc(-c2cnc(N)c(-c3nc4ccccc4o3)c2)c1 [Example 2.8],96.5%
12,Nc1ncc(-c2ccc(C(=O)N3CCC4(CCNCC4)CC3)cc2)cc1-c1nc2cccnc2o1 [Example 45A.100],95.3%
13,CC(=O)NCCC(=O)N1CCC(n2cc(-c3cnc(N)c(-c4nc5cccnc5o4)c3)cn2)CC1 [Example 59.11],99.0%
14,CNCCCOc1ccc(-c2cnc(N)c(-c3nc4ncccc4o3)c2)cc1OC [Example 43C.28],51.0%
15,CC1CN(CCCOc2ccc(-c3cnc(N)c(-c4nc5ncccc5o4)c3)cc2)CC(C)N1 (stereo not drawn) [Example 43B.42],96.6%
16,Nc1ncc(-c2ccc(C(=O)NCCN3CCC(F)(F)C3)cc2)cc1-c1nc2cccnc2o1 [Example 45A.37],92.2%
17,Nc1ncc(-c2cnn(CC3CCNCC3)c2)cc1-c1nc2ccccc2o1 [Example 29.7],99.8%
18,Nc1ncc(-c2ccc(C(=O)NC3CCCNC3)cc2)cc1-c1nc2cccnc2o1 (stereo not drawn) [Example 45A.84],99.1%
19,CN(C)CCCOc1ccc(-c2cnc(N)c(-c3nc4ncccc4o3)c2)cc1 [Example 43B.10],98.4%
20,Nc1ncc(-c2ccc(C(=O)NCCN3CCCCCC3)cc2)cc1-c1nc2cccnc2o1 [Example 45A.32],99.6%
21,CN1CCC(Cn2cc(-c3cnc(N)c(-c4nc5ccccc5o4)c3)cn2)CC1 [Example 41.6],99.9%
22,CC(C)(C)OC(=O)NCc1cccc(-c2cnc(N)c(-c3nc4ccncc4o3)c2)c1 [Example 11A.9],99.3%
23,Nc1ncc(-c2ccc(OCC#CCN3CCS(=O)(=O)CC3)cc2)cc1-c1nc2ncccc2o1 [Example 43B.23],95.3%
24,Nc1ncc(-c2ccc(C(=O)NCCCn3ccnc3)cc2)cc1-c1nc2cccnc2o1 [Example 45A.53],98.8%

row,Compound,% Axl tyrosine kinase inhibition at 1 μM concentration
1,CN1CCC(Oc2ccc(-c3cnc(N)c(-c4nc5ncccc5o4)c3)cc2)CC1 [Example 43B.11],98.1%
2,CN(C)CCNC(=O)c1cccc(-c2cnc(N)c(-c3nc4cccnc4o3)c2)c1 [Example 9A.5],75.2%
3,COc1cc(-c2cnc(N)c(-c3nc4ncccc4o3)c2)ccc1OCCCN [Example 43C.27],99.4%
4,Nc1ncc(-c2ccc(C(=O)NCCN3CCNCC3)cc2)cc1-c1nc2cccnc2o1 [Example 45A.83],98.9%
5,COc1cc(-c2cnc(N)c(-c3nc4ncccc4o3)c2)ccc1OCCN1CCNCC1 [Example 43C.25],99.5%
6,N#Cc1cccc2oc(-c3cc(-c4cnn(C5CCNCC5)c4)cnc3N)nc12 [Example 38A.3],99.9%
7,Nc1ncc(-c2cccc(N3CCCC3)c2)nc1-c1nc2ccccc2o1 [Example 20.5],85.6%
8,C[C@@H]1CN(CCNC(=O)c2ccc(-c3cnc(N)c(-c4nc5cccnc5o4)c3)cc2)C[C@H](C)O1 [Example 45A.45],93.8%
9,CN(C)[C@H]1CCN(C(=O)c2ccc(-c3cnc(N)c(-c4nc5cccnc5o4)c3)cc2)C1 [Example 45A.77],96.1%
10,CN1CCN(CCOc2ccc(-c3cnc(N)c(-c4nc5ncccc5o4)c3)cc2)CC1 [Example 43B.7],98.1%
11,Nc1ncc(-c2cnn(C3CCN(S(=O)(=O)C4CC4)CC3)c2)cc1-c1nc2ncccc2o1 [Example 55.2],98.8%
12,N#Cc1ccc(-c2cnc(N)c(-c3nc4ccccc4o3)c2)cc1 [Example 2.44],25.0%
13,CS(=O)(=O)Oc1cccc(-c2cnc(N)c(-c3nc4ccccc4o3)c2)c1 [Example 2.52],81.0%
14,CN1CCC(CNC(=O)c2ccc(-c3cnc(N)c(-c4nc5cccnc5o4)c3)cc2)C1 (stereo not drawn) [Example 45A.27],97.9%
15,CN1CCCC(COc2ccc(-c3cnc(N)c(-c4nc5ncccc5o4)c3)cc2)C1 (stereo not drawn) [Example 43B.12],98.8%
16,COCc1nn(C2CCNCC2)cc1-c1cnc(N)c(-c2nc3cccc(OC)c3o2)c1 [Example 62.14],100.0%
17,CN(C)CC(=O)N1CCC(n2cc(-c3cnc(N)c(-c4nc5cccnc5o4)c3)cn2)CC1 [Example 59.7],99.6%
18,CN1CCCCC1CCOc1ccc(-c2cnc(N)c(-c3nc4ncccc4o3)c2)cc1 (stereo not drawn) [Example 43B.13],96.8%
19,Nc1ncc(-c2ccc(C(=O)NC[C@H]3CCCNC3)cc2)cc1-c1nc2cccnc2o1 [Example 45A.93],99.3%
20,Nc1ncc(-c2ccc(OCCOC3CNC3)cc2)cc1-c1nc2ncccc2o1 [Example 43B.39],98.2%
21,CN1CCC(n2cc(-c3cnc(N)c(-c4nc5ccccc5o4)c3)c(C(N)=O)n2)CC1 [Example 41.35],99.8%
22,COc1cc(-c2cnc(N)c(-c3nc4ncccc4o3)c2)ccc1OCCCN1CCN(C)CC1 [Example 43C.14],99.3%
23,CN(C)C(=O)CN1CCN(C(=O)c2ccc(-c3cnc(N)c(-c4nc5ncccc5o4)c3)cc2)CC1 [Example 45B.6],95.9%

# Same assay, conditions: test compound at 1 μM; first value quoted; read-out: % Axl tyrosine kinase inhibition at 1 μM concentration
row,Compound,inhibition at 1 µM
1,"COCc1nn(C2CCNCC2)cc1-c1cnc(N)c(-c2nc3ccccc3o2)c1 [Example 25.14, 3-(1,3-benzoxazol-2-yl)-5-[3-(methoxymethyl)-1-(4-piperidyl)pyrazol-4-yl]pyridin-2-amine]",100%
2,"Nc1ncc(-c2cnn(C3CCNCC3)c2)nc1-c1nc2ccc(F)cc2o1 [Example 17A.1, 3-(6-fluoro-1,3-benzoxazol-2-yl)-5-[1-(4-piperidyl)pyrazol-4-yl]pyrazin-2-amine]",98.5%
3,"CN(C)C(=O)CN1CCC(n2cc(-c3cnc(N)c(-c4nc5ccccc5o4)c3)c(CO)n2)CC1 [Example 69, 2-[4-[4-[6-amino-5-(1,3-benzoxazol-2-yl)-3-pyridyl]-3-(hydroxymethyl)pyrazol-1-yl]-1-piperidyl]-N,N-dimethyl-acetamide]",100%
4,"COCC(=O)N1CCC(n2cc(-c3cnc(N)c(-c4nc5ncccc5o4)c3)cn2)CC1 [Example 56, 1-[4-[4-(6-amino-5-oxazolo[4,5-b]pyridin-2-yl-3-pyridyl)pyrazol-1-yl]-1-piperidyl]-2-methoxy-ethanone]",99.3%
5,"Nc1ncc(-c2cnn(C3CCNCC3)c2)cc1-c1nc2cnccc2o1 [Example 8, 3-Oxazolo[4,5-c]pyridin-2-yl-5-[1-(4-piperidyl)pyrazol-4-yl]pyridin-2-amine]",99.2%
6,"CCN1CCC(n2cc(-c3cnc(N)c(-c4nc5ncccc5o4)c3)cn2)CC1 [Example 52, 5-[1-(1-ethyl-4-piperidyl)pyrazol-4-yl]-3-oxazolo[4,5-b]pyridin-2-yl-pyridin-2-amine]",99.8%
7,"CNCc1nn(C2CCN(C(C)=O)CC2)cc1-c1cnc(N)c(-c2nc3ccccc3o2)c1 [Example 63, 1-[4-[4-[6-amino-5-(1,3-benzoxazol-2-yl)-3-pyridyl]-3-(methylaminomethyl)pyrazol-1-yl]-1-piperidyl]ethanone]",98.4%

# Same assay, conditions: test compound at 30 μM
row,Compound,% of Axl tyrosine kinase activity inhibited at a concentration of 30 μM
1,CS(=O)(=O)c1cccc(-c2cnc(N)c(-c3nc4cnccc4o3)c2)c1 [Example 8A.3],^###the compound disclosed in Example 8A.3 inhibited 100% of Axl tyrosine kinase activity at a concentration of 30 μM.
